Laboratory results published in article PMC6352937, “Inhibition of protein phosphatase-1 and -2A by ellagitannins: structure-inhibitory potency relationships and influences on cellular systems” (Journal of Enzyme Inhibition and Medicinal Chemistry, 2019).
Blank lines part the entries; values can stand above or below the compound they belong to.

Tests used:
PP1c = experiment: Protein phosphatase assay with 32P-MLC20, native PP1c; assay type: biochemical; conditions: native PP1c from rabbit skeletal muscle; 1 µM 32P-MLC20; 10 min preincubation; mean ± SD
Procedure: (§1) Protein phosphatase activity of either skeletal muscle PP1c or PP2Ac (1.9–2.2 nM), or rPP1cα or rPP1cδ (2.71–3.72 nM), or FLAG-MYPT1-PP1c (∼9 nM) was assayed at 30 °C in absence or presence of polyphenol compounds (0.1–100 µM) in 20 mM Tris/HCl (pH 7.4), 0.1% 2-mercaptoethanol (30 µL). The purified phosphatase samples or HeLa lysates in 300-fold dilution (1.8–3.6 µg/ml) in the presence or absence of 2 µM I2 were preincubated with increasing concentration of the polyphenol compounds (0–100 µM) for 10 min then the reaction was started by the addition of 1 µM ^32P-MLC20 and incubated for 10 min. Polyphenol-treated HeLa cells were washed then lysed in 50 mM Tris/HCl (pH 8.0), 150 mM NaCl, 1% (V/V) Triton X-100, 0.15% (w/v) protease inhibitor cocktail. The phosphatase activity was assayed with 1 µM ^32P-MLC20 for 30 s in 3-fold final dilution (0.24–0.43 mg/ml). The reactions were terminated by the addition of 200 µL of 10% trichloroacetic acid and 200 µL of 6 mg/mL BSA solution. The samples were centrifuged for 3 min at 10,000 rpm and the supernatants (370 µL) were transferred into scintillation vials and the radioactivity of the released ^32Pi was determined in Tri-Carb 2800TR scintillation counter.
(§2) The ellagitannins (Figure 1) assayed on the activity of PP1c or PP2Ac in this study are similar to PGG in composition, but they differ structurally in two important aspects: (i) all of them include hexahydroxydiphenoyl unit linked in various positions, except for pedunculagin which includes two of these linkages; (ii) tellimagrandin I, pedunculagin, and praecoxin B have free glycosidic hydroxyls, while GHG has an unmodified hydroxyl at position 3 of the glucopyranose ring. […] Inhibition of the phosphatase activity by ellagitannins in HeLa cell lysate was also assessed. First, we determined the activity of PP1 and PP2A in the lysates using I2 to inhibit PP1, and low concentration of OA (2 nM) to suppress PP2A specifically, in order to determine the contribution of PP1 and PP2A to the phosphatase activity of lysates (Figure 2(E)).
(§3) Figure 2. The effect of ellagitannins on the activity of PP1 and PP2A. Ellagitannins (0.1–100 µM) were preincubated with the phosphatase samples for 10 min and the phosphatase activity was determined in triplicates with 1 µM ^32P-MLC20 substrate as described in “Materials and methods” section. […] The effect of tellimagrandin I on the activity of rPP1cα (^) and rPP1cδ (●) (C), or FLAG-MYPT1-PP1cδ (▼) (D), or on the phosphatase activity of HeLa lysate in the presence of I2 (□) (F). The effect of I2 and OA on the phosphatase activity of HeLa lysate (E). Phosphatase activity in the absence of ellagitannins, I2 or OA was taken as 100%. Data are means ± SD (n = 3–5).

PP2Ac = experiment: Protein phosphatase assay with 32P-MLC20, native PP2Ac; assay type: biochemical; conditions: native PP2Ac from rabbit skeletal muscle; 1 µM 32P-MLC20; 10 min preincubation; mean ± SD
Procedure: as §1, §2, §3

HeLa lysate = experiment: Phosphatase activity of HeLa cell lysate (32P-MLC20); assay type: biochemical, human; conditions: HeLa lysate in 300-fold dilution; 1 µM 32P-MLC20; mean ± SD
Procedure: as §1, §2, §3

rPP1cα = biological target: T1, rPP1cα (Homo sapiens, UniProt P62136); experiment: Microscale thermophoresis (MST); assay type: binding
T1 construct: FLAG; made in house
Procedure: Figure 3. […] The changes in either, the intrinsic fluorescence of unlabelled rPP1cα upon binding to tellimagrandin I and PGG, or changes in fluorescent signal from rPP1cα extrinsically labelled with NT647 dye upon binding with EGCG, were determined at a range of concentration of polyphenols, and the fractions bound are presented. Data points are means ± SD (n = 3).

SNAP-25^Thr138 = experiment: Phosphorylation of SNAP-25 Thr138 in cortical synaptosomes (Western blot); assay type: cell-based, mouse; conditions: synaptosomes treated 45 min at 30 °C; ellagitannins 1-100 µM, TMC 10 µM
Procedure: Preparation of synaptosomes from murine brain cortex was carried out as described previously. Functional synaptosomes were kept in Krebs buffer (118 mM NaCl, 5 mM KCl, 25 mM NaHCO3, 1 mM MgCl2, 10 mM D-glucose, pH 7.4). After preparation, synaptosomes were treated with either tellimagrandin I or mahtabin A in 1, 10 or 100 µM final concentrations, or with 10 µM tautomycetin (TMC) for 45 min at 30 °C. After the treatments synaptosomes were applied for exocytosis assay or were lysed and the protein lysates were subjected to Western blot. For exocytosis assay an already established protocol[25] was used. FM 2–10 water-soluble styryl dye was incorporated first into the outer leaflet of synaptosome membrane, then into the synaptosomes. Exocytosis was induced by addition of 30 mM KCl to the synaptosomes. The fluorescent intensity of FM 2–10 styryl dye negatively correlated with the extent of synatposomal exocytosis and was measured by Fluoroskan FL (excitation: 488 nm, emission: 540 nm). Western blot of synaptosome proteins was carried out as described previously[24]^,[25].
Figure 5. […] E: Representative Western blot with anti- SNAP-25^pThr138 specific antibody. F: Relative changes in the amount of SNAP-25^pThr138 determined by densitometry of the Western blots normalised on the bands obtained for the loading controls. Data are means ± SD (n = 3). ANOVA *p < .05, **p < .01, ***p < .001, n.s.: not significant.

T1 sequence (P62136 whole entry): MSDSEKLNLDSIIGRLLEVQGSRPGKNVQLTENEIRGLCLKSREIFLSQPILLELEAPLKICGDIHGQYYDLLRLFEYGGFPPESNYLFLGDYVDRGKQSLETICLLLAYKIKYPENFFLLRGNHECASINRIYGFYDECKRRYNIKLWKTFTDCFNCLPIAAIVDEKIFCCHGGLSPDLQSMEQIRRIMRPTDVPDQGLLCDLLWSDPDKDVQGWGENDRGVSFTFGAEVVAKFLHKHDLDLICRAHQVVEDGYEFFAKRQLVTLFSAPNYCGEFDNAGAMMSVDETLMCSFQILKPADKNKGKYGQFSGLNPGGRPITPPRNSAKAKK

IC50 (PP1c): 1.41 ± 0.3 µM
IC50 (PP2Ac): > 100 µM
IC50 (HeLa lysate): 13 ± 3.3 µM
Compound: O=C(O[C@@H]1O[C@@H]2COC(=O)c3cc(O)c(O)c(O)c3-c3c(cc(O)c(O)c3O)C(=O)O[C@H]2[C@H](O)[C@H]1OC(=O)c1cc(O)c(O)c(O)c1)c1cc(O)c(O)c(O)c1 [GHG, 1,2-di-O-galloyl-4,6-(S)-hexahydroxydiphenoyl-β-D-glucose]

Kd (rPP1cα; rPP1cα labelled with NT-647 (NT.115)): 8.2 ± 4.3 µM
Compound: epigallocatechin-3-gallate [EGCG]

Compound: O=C(OC[C@H]1O[C@@H](OC(=O)c2cc(O)c(O)c(O)c2)[C@H](OC(=O)c2cc(O)c(O)c(O)c2)[C@@H](OC(=O)c2cc(O)c(O)c(O)c2)[C@@H]1OC(=O)c1cc(O)c(O)c(O)c1)c1cc(O)c(O)c(O)c1 [PGG, penta-O-galloyl-β-D-glucose]
Kd (rPP1cα; unlabelled rPP1cα, intrinsic fluorescence (NT.LabelFree)): 3.08 ± 0.35 µM

Compound: tautomycetin [TMC, reference compound]
Effect on phosphorylation level of SNAP-25^Thr138 (SNAP-25^Thr138): increased the amount of SNAP-25^pThr138
